In the supplement of paper PMC10733146:

Columns and labels:
Test in all cases: viability relative to DMSO control (fraction); higher = less drug effect (more viable cells)
Conditions in all cases: 48 h
[1] = test system: primary AML patient cells (S006)
Method in brief: (§1)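 Viability is given as CellTiter-Glo luminescence relative to the median of 16 inner DMSO wells. Fresh or cryopreserved primary mononuclear tumour cells from blood, bone marrow (both Ficoll-isolated) or processed lymph node were plated at 4 × 10^4 cells per well in 384-well plates against five pre-plated compound concentrations, one well each. Incubation lasted 48 h at 37 °C and 5% CO2 in RPMI-1640 with penicillin/streptomycin, L-glutamine and human serum.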

[2] = test system: primary ALL patient cells (S088)
Method in brief: as §1

[3] = test system: primary CLL patient cells (S043)
Method in brief: as §1

[4] = test system: primary CLL patient cells (S031)
Method in brief: as §1

[5] = test system: primary DLBCL patient cells (S076)
Method in brief: as §1

[6] = test system: primary AML patient cells (S072)
Method in brief: as §1

[7] = test system: primary MCL patient cells (S063)
Method in brief: as §1

[8] = test system: primary AML patient cells (S089)
Method in brief: as §1

[9] = test system: primary AML patient cells (S060)
Method in brief: as §1

[10] = test system: primary T-NHL patient cells (S058)
Method in brief: as §1

[11] = test system: primary AML patient cells (S071)
Method in brief: as §1

[12] = test system: primary AML patient cells (S079)
Method in brief: as §1

[13] = test system: primary DLBCL patient cells (S049)
Method in brief: as §1

[14] = test system: primary AML patient cells (S055)
Method in brief: as §1

[15] = test system: primary AML patient cells (S056)
Method in brief: as §1

[16] = test system: primary ALL patient cells (S048)
Method in brief: as §1

[17] = test system: primary DLBCL patient cells (S082)
Method in brief: as §1

CO[C@H]1C[C@@H]2CC[C@@H](C)[C@@](O)(O2)C(=O)C(=O)N2CCCC[C@H]2C(=O)O[C@H]([C@H](C)C[C@@H]2CC[C@@H](OC(=O)C(C)(CO)CO)[C@H](OC)C2)CC(=O)[C@H](C)/C=C(\C)[C@@H](O)[C@@H](OC)C(=O)[C@H](C)C[C@H](C)/C=C/C=C/C=C/1C [Temsirolimus]
viability ([1]; 0.032 µM): 0.824
viability ([1]; 0.16 µM): 0.746
viability ([1]; 0.8 µM): 0.709
viability ([1]; 4 µM): 0.65
viability ([1]; 20 µM): 0.415
viability ([2]; 0.032 µM): 0.737
viability ([2]; 0.16 µM): 0.688
viability ([2]; 0.8 µM): 0.693
viability ([2]; 4 µM): 0.703
viability ([2]; 20 µM): 0.576
viability ([3]; 0.032 µM): 0.749
viability ([3]; 0.16 µM): 0.745
viability ([3]; 0.8 µM): 0.738
viability ([3]; 4 µM): 0.733
viability ([3]; 20 µM): 0.692
viability ([4]; 0.032 µM): 0.795
viability ([4]; 0.16 µM): 0.708
viability ([4]; 0.8 µM): 0.8
viability ([4]; 4 µM): 0.831
viability ([4]; 20 µM): 0.701
viability ([5]; 0.032 µM): 0.821
viability ([5]; 0.16 µM): 0.753
viability ([5]; 0.8 µM): 0.805
viability ([5]; 4 µM): 0.765
viability ([5]; 20 µM): 0.616
viability ([6]; 0.032 µM): 0.733
viability ([6]; 0.16 µM): 0.886
viability ([6]; 0.8 µM): 0.704
viability ([6]; 4 µM): 0.728
viability ([6]; 20 µM): 0.604
viability ([7]; 0.032 µM): 0.913
viability ([7]; 0.16 µM): 0.892
viability ([7]; 0.8 µM): 0.9
viability ([7]; 4 µM): 0.946
viability ([7]; 20 µM): 0.843
viability ([8]; 0.032 µM): 0.752
viability ([8]; 0.16 µM): 0.831
viability ([8]; 0.8 µM): 0.673
viability ([8]; 4 µM): 0.684
viability ([8]; 20 µM): 0.719
viability ([9]; 0.032 µM): 1.05
viability ([9]; 0.16 µM): 1.04
viability ([9]; 0.8 µM): 1.04
viability ([9]; 4 µM): 1.06
viability ([9]; 20 µM): 1
viability ([10]; 0.032 µM): 0.902
viability ([10]; 0.16 µM): 0.809
viability ([10]; 0.8 µM): 0.904
viability ([10]; 4 µM): 0.873
viability ([10]; 20 µM): 0.697
viability ([11]; 0.032 µM): 0.837
viability ([11]; 0.16 µM): 0.761
viability ([11]; 0.8 µM): 0.723
viability ([11]; 4 µM): 0.646
viability ([11]; 20 µM): 0.407
viability ([12]; 0.032 µM): 0.764
viability ([12]; 0.16 µM): 0.771
viability ([12]; 0.8 µM): 0.768
viability ([12]; 4 µM): 0.755
viability ([12]; 20 µM): 0.675
viability ([13]; 0.032 µM): 1.02
viability ([13]; 0.16 µM): 0.986
viability ([13]; 0.8 µM): 0.987
viability ([13]; 4 µM): 0.966
viability ([13]; 20 µM): 0.794
viability ([14]; 0.032 µM): 0.919
viability ([14]; 0.16 µM): 0.959
viability ([14]; 0.8 µM): 0.957
viability ([14]; 4 µM): 0.955
viability ([14]; 20 µM): 0.812
viability ([15]; 0.032 µM): 0.606
viability ([15]; 0.16 µM): 0.789
viability ([15]; 0.8 µM): 0.847
viability ([15]; 4 µM): 0.735
viability ([15]; 20 µM): 0.425
viability ([16]; 0.032 µM): 0.747
viability ([16]; 0.16 µM): 0.706
viability ([16]; 0.8 µM): 0.702
viability ([16]; 4 µM): 0.748
viability ([16]; 20 µM): 0.49
viability ([17]; 0.032 µM): 0.794
viability ([17]; 0.16 µM): 0.759
viability ([17]; 0.8 µM): 0.776
viability ([17]; 4 µM): 0.804
viability ([17]; 20 µM): 0.748
